Laboratory results as given in US11628146B2, “Estrogen receptor ligand treatment for neurodegenerative diseases” (The Regents of the University of California, priority 2014, dated 2023).
Entries after “also recorded” stand apart in the source; their conditions may differ.

How the values were obtained:
EAE in NOD mice = assay: Standard EAE clinical score (0-5 scale), MOG-induced EAE, NOD mice; format: in vivo, mouse; parameters: key to Standard EAE Score: n.s. = not significant; *p < 0.05; ***p = 0.0004; ****p < 0.0001; n.i. = not informative; settings: for Standard EAE Score: significance vs vehicle
Description: Animals. C57BL/6 and NOD mice 8 weeks old were purchased from Jackson Laboratories (Bar Harbor, Me.). Animals were maintained under environmentally controlled conditions in a 12-hour light/dark cycle with access to food and water ad libitum. All procedures were done in accordance with the guidelines of the National Institutes of Health and the Chancellor's Animal Research Committee of the University of California, Los Angeles Office for the Protection of Research Subjects.
Reagents. AC-186 was dissolved in either Miglyol 812N liquid oil (Sasol North America) or sesame oil (Sigma Aldrich) as following concentration; 1.5 mg/mL for 3 mg/kg group, 5 mg/mL for 10 mg/kg group, and 15 mg/mL for 30 mg/kg group. Diarylpropionitrile (DPN, Tocris Biosciences) was dissolved in 10% molecular-grade ethanol and diluted with 90% of either Miglyol 812N liquid oil or sesame oil.
EAE and Treatments. Animals were injected subcutaneously with Myelin Oligodendrocyte Glycoprotein (MOG), amino acids 35-55 (200 μg/animal, American Peptides), emulsified in complete Freund's adjuvant (CFA) and supplemented with Mycobacterium tuberculosis H37ra (300 μg/animal, Difco Laboratories), over two sites drained by left inguinal and auxiliary lymph nodes in a total volume of 0.1 ml/mouse. One week later, a booster immunization was delivered over contra lateral lymph nodes. Pertussis toxin (500 ng/mouse) (List Biological Laboratories, Inc.) was injected intraperitoneally on days 0 and 2. Animals were monitored daily for EAE signs based on a standard EAE 0-5 scale scoring system: 0—healthy, 1—complete loss of tail tonicity, 2—loss of righting reflex, 3—partial paralysis, 4—complete paralysis of one or both hind limbs, and 5—moribund. Animals received 0.05 ml of either of 1.5, 5, 15 mg/mL AC-186, vehicle (sesame oil or Miglyol 812N liquid oil), or DPN (8 mg/kg/day) via subcutaneous injections every other day. Animals were treated with AC-186 or vehicle after EAE induction. Specifically, treatment was initiated at the first clear signs of clinical disease (EAE day 13-15), and continued to the endpoint of the experiment.

EAE in C57BL/6 mice = assay: Rotarod testing of motor coordination and balance in EAE, C57BL/6 mice; format: in vivo, mouse; parameters: key to Rotarod Score: n.s. = not significant; *p < 0.05; ***p = 0.0004; ****p < 0.0001; n.i. = not informative; settings: for Rotarod Score: significance vs vehicle
Experimental: Rotarod Testing. Motor behavior was tested up to two times per week for each mouse using a rotarod apparatus (Med Associates Inc., St. Albans, Vt.). Briefly, animals were placed on a rotating horizontal cylinder for a maximum of 200 seconds. The amount of time the mouse remained walking on the cylinder, without falling, was recorded. Each mouse was tested on a speed of 3-30 rpm and given three trials for any given day. The three trials were averaged to report a single value for an individual mouse, and then averages were calculated for all animals within a given treatment group. The first two trial days prior to immunization (day 0), served as practice trials.

[1] = system: female C57BL/6 mice with EAE; assay: In vivo longitudinal MRI of brain volumes in EAE; parameters: species or system mouse
Experimental: MRI Acquisition. Mice were anesthetized with isofluorane and their heads secured with bite and ear bars. Respiration rate was monitored and the mice were maintained at 37° C. using a circulating water pump. In vivo magnetic resonance imaging was performed using a 200 mm horizontal bore 7.0 T Bruker imaging spectrometer with a micro-imaging gradient insert with a maximum gradient strength of 100 G/cm and 30 mm birdcage RF coil (Bruker Instruments, Billerica, Mass.). An actively decoupled quadrature surface coil array was used for signal reception and a 72-mm birdcage coil was used for transmission. Images were acquired and reconstructed using ParaVision 5.1 software. Imaging parameters were as follows: rapid-acquisition with relaxation enhancement (RARE) sequence, matrix dimensions=256×128×64; field of view=3.84 cm×1.92 cm×0.96 cm; repetition time (TR)=3500 ms; apparent time to echo (apparent TE)=32 ms; echo train length=16; total scan time=37 mins. Spatial resolution was 150 μm^3 per voxel.
MRI Analysis. Images were skull-stripped using the Brain Surface Extractor (BSE) and residual non-brain signal was removed by a single operator manually editing the masks using BrainSuite 11a and bias-field inhomogeneities removed using the N3 correction. After inhomogeneity correction, a minimum deformation atlas (MDA) was produced. Images were spatially and intensity normalized to the MDA using a rigid-body transformation and an intensity rescaling cost function in Alignlinear (AIR). This process permits the comparison of images in a standard space correcting for both gross positional and intensity differences, yet preserving anatomically significant local changes. Following creation of this atlas, cerebral cortices and cerebella were manually labeled on the atlas. The labels were then warped onto the individual spatially normalized images to produce standardized estimates of gray matter volumes in individual subjects. All automated image processing was performed using the LONI Pipeline Processing Environment on an 8-processor core Mac Pro computer (Apple, Cupertino, Calif.).
Cerebral cortex and cerebellum labels were based on the Mouse Atlas Project 2003 mouse brain atlas. […] Importantly, this label contained the somatosensory regions (primary and secondary) and the motor cortex (primary and secondary). Additional anatomical information was obtained from the Franklin and Paxinos mouse brain atlas (Franklin and Paxinos, 2008).
Statistics. Global and regional brain volume changes in EAE mice and control animals were compared with repeated measures ANOVAs using SPSS 22 (IBM, Armonk, N.Y.). […] Regression analysis and Welch's t-tests were performed in Excel 2011 (Microsoft, Redmond, Wash.). All results are presented as mean±standard deviation.

[2] = 30 mg/kg every other day in miglyol, d0, d30, d60, vs vehicle-treated EAE

For `Oc1ccc(C2(c3ccccc3F)CCC(F)(F)CC2)cc1` [AC-186], the “Standard EAE Score” value (EAE in NOD mice; NOD F, AC186 10 mg/kg, miglylol vehicle) was “**** (****p < 0.0001)”, the “Standard EAE Score” value (EAE in NOD mice; NOD F, AC186 30 mg/kg, miglylol vehicle) was “**** (****p < 0.0001)” and the “Standard EAE Score” value (EAE in NOD mice; NOD F, AC186 30 mg/kg, sesame vehicle) was “n.s”. For the same compound, the “Standard EAE Score” value (EAE in NOD mice; NOD M, AC186 10 mg/kg, miglylol vehicle) was “n.s”, the “Standard EAE Score” value (EAE in NOD mice; NOD M, AC186 30 mg/kg, miglylol vehicle) was “**** (****p < 0.0001)” and the EAE score (EAE in NOD mice; NOD females, 10 mg/kg in miglyol, vs vehicle, 10 mg/kg) was “improved EAE scores; also recorded: better EAE scores”. For the same compound, the EAE score (EAE in NOD mice; NOD females, 30 mg/kg in miglyol, vs vehicle, 30 mg/kg) was “improved EAE scores; also recorded: better EAE scores”, the EAE score (EAE in NOD mice; NOD females, high dose AC-186 in sesame oil carrier) was “did not ameliorate EAE scores; also recorded: no protection was observed” and the EAE score (EAE in NOD mice; NOD males, 10 mg/kg in miglyol, vs vehicle) was “not”. The EAE score (EAE in NOD mice; NOD males, 30 mg/kg in miglyol, vs vehicle, 30 mg/kg) was “improved EAE scores; also recorded: ameliorated”, the “Rotarod Score” value (EAE in C57BL/6 mice; C57BL/6 F, AC186 3 mg/kg, sesame vehicle) was “n.s” and the “Rotarod Score” value (EAE in C57BL/6 mice; C57BL/6 F, AC186 10 mg/kg, miglylol vehicle) was “n.s”. The “Rotarod Score” value (EAE in C57BL/6 mice; C57BL/6 F, AC186 10 mg/kg, sesame vehicle) was “n.s”, the “Rotarod Score” value (EAE in C57BL/6 mice; C57BL/6 F, AC186 30 mg/kg, miglylol vehicle) was “*** (***p = 0.0004)” and the “Rotarod Score” value (EAE in C57BL/6 mice; C57BL/6 F, AC186 30 mg/kg, sesame vehicle) was “n.s”. For the same compound, the “Rotarod Score” value (EAE in C57BL/6 mice; C57BL/6 M, AC186 30 mg/kg, miglylol vehicle) was “**** (****p < 0.0001)”, the “Rotarod Score” value (EAE in C57BL/6 mice; C57BL/6 M, AC186 30 mg/kg, sesame vehicle) was “n.s” and the Rotarod times (EAE in C57BL/6 mice; female C57BL/6, 30 mg/kg in miglyol, vs miglyol vehicle) was “significant efficacy in the rotarod experiment; also recorded: beneficial effects; also recorded: showed an improvement; also recorded: significant improvement”. The “Rotarod performance at the final two time-points” value (EAE in C57BL/6 mice; female C57BL/6, 30 mg/kg in sesame oil, days 48 and 50, 200 second test) was “performed perfectly”, the Rotarod times (EAE in C57BL/6 mice; female C57BL/6, 30 mg/kg in sesame oil, vs vehicle) was “No significant effect was observed” and the Rotarod times (EAE in C57BL/6 mice; male C57BL/6, 30 mg/kg in miglyol, vs miglyol alone) was “performed significantly better; also recorded: better rotarod scores”. The Rotarod times (EAE in C57BL/6 mice; male C57BL/6, 30 mg/kg in sesame oil, vs sesame oil alone) was “did not perform significantly better”, the “Cerebellar atrophy (volume loss)” value [1, 2] was “decreased the amount of volume loss; also recorded: less cerebellar atrophy” and the Cerebral cortex atrophy [1, 2] was “atrophy rates were decreased; also recorded: less atrophy in the cerebral cortex”. For the same compound, the “Whole brain atrophy (whole brain volume decrease over time)” value [1, 2] was “significantly smaller; also recorded: less brain atrophy”, the “Volume of the whole cerebellum” value ([1]; AC-186 30 mg/kg treated EAE mice, d60, mean, SD 1.1 mm^3) was 51.8 mm^3 and the “Volume of the cerebral cortex” value ([1]; AC-186 30 mg/kg treated EAE mice, d60, mean, SD 1.6 mm^3) was 70.8 mm^3. For the same compound, the “Volume of the whole brain” value ([1]; AC-186 30 mg/kg treated EAE mice, d60, mean, SD 7.0 mm^3) was 483 mm^3, the “Difference in cerebellum volume vs vehicle treated EAE mice” value ([1]; d60, vehicle 50.0 mm^3) was 3.5% and the “Difference in cerebral cortex volume vs vehicle treated EAE mice” value ([1]; d60, vehicle 68.9 mm^3) was 5.0%. For the same compound, the “Difference in whole brain volume vs vehicle treated EAE mice” value ([1]; d60, vehicle 478 mm^3) was 2.7%.
